Laboratory results as given in patent publication US20210198248A1, “FUMARATE SALT OF 5-((5-METHYL-2-((3,4,5-[…])AMINO)PYRIMIDIN-4-YL)AMINO)-BENZO[D]OXAZOL-2(3H)-ONE” (ASTRAZENECA AB, priority 2018, published 2021).
Where a name gives a salt, the structure may show the parent alone.

Assays:
[1] = Dissolution measurements, μ-DISS Profiler, micronized material; format: physicochemical
Method: In general, 0.5 mg of the micronized material was added to the stirred dissolution media (20 mL 0.1 M acetate buffer, pH 4.5, 200 rpm, at 37° C.). The dissolution profiles were generated by measuring the UV absorbance at 280 nm wavelength. The material of interest was evaluated in triplicate.
The particle size of the materials was reduced by micronisation, as follows, using a 2″ Spiral Jet Mill or a 1″ MCOne fluid Jet Mill followed by subsequent particle size distribution (PSD) measurements.
Test substance was fed into the jet mill chamber, via a venturi feed system, by a vibratory feeder. Micronisation was achieved by particle collisions brought about by compressed gas (nitrogen) forced through angled nozzles in the jet mill chamber. Particles of different sizes develop different speeds and momentum and as the particle size is reduced the particles spiral towards the centre of the jet mill and exit via an exhaust into a collection bin. The process parameters that control the particle size, in addition to the inherent properties of the compound to be micronised, are the feed rate, grinding pressure and venturi pressure and these are summarised in Table 2 below.

JAK = conditions: cell-based assay, WO 2010/085684 page 314; cited from earlier work

Cc1cnc(Nc2cc(C)c(C)c(C)c2)nc1Nc1ccc2oc(=O)[nH]c2c1 [hemi-fumarate salt, 5-((5-methyl-2-((3,4,5-trimethylphenyl)-amino)pyrimidin-4-yl)amino)benzo[d]oxazol-2(3H)-one hemi-fumarate Salt]
increase in solubility compared to free base ([1]; at 50 minutes, 0.1 M acetate buffer pH 4.5, 37° C., micronized material): ~6 fold | aqueous solubility ([1]; general statement, compared to Compound (I) free base): high aqueous solubility

Cc1cnc(Nc2cc(C)c(C)c(C)c2)nc1Nc1ccc2oc(=O)[nH]c2c1 [Compound (I), 5-((5-methyl-2-((3,4,5-trimethylphenyl)-amino)pyrimidin-4-yl)amino)benzo[d]oxazol-2(3H)-one]
IC50 (JAK): < 0.5 µM
